Assay results: patent US20160122268A1, “PROCESS FOR SIMULTANEOUS EXTRACTION AND SEPARATION OF ESTERIFIED AND UNESTERIFIED MONOHYDROXYCAROTENOIDS” (UNIVERSITY OF MARYLAND, COLLEGE PARK, priority 2013, published 2016)

test: Solubility in hydrocarbon solvents (pentane or hexane), observed in Soxhlet extraction; format: physicochemical; conditions: boiling pentane or hexane
Excerpt: In an alternative process, Soxhlet extraction of mono- and dihydroxycarotenoids can also be carried out to separate these carotenoids. As mentioned earlier, esterified forms of lutein and zeaxanthin are well solubilized in hydrocarbon solvents such as n-hexane and n-pentane, whereas their unesterified parent compounds, […], show a remarkable difference in their solubility behavior and remain insoluble. In fact, […] are considerably more soluble in n-pentane or n-hexane than lutein and zeaxanthin.
Similarly, a mixture of zeaxanthin and β-cryptoxanthin can be separated by Soxhlet extraction with n-pentane or n-hexane due to their differential solubility in hydrocarbon solvents.
100 mg of 1:1 mixture of (3R)-β-cryptoxanthin (13) and (3R,3′R)-zeaxanthin (5) was subjected to Soxhlet extraction and these unesterified carotenoids were extracted with boiling pentane (b.p.=36° C.) or hexane (b.p.=69° C.). […] After 4 hours, the composition of the extract was: (3R)-β-cryptoxanthin (13) (85%) and (3R,3′R)-zeaxanthin (5) (15%). In a subsequent Soxhlet extraction with pentane or hexane, (3R)-β-cryptoxanthin (13) was obtained in 98% purity.

Structure (SMILES) | solubility in hydrocarbon solvents
CC(C=CC=C(C)C=CC1=C(C)CC(O)CC1(C)C)=CC=CC=C(C)C=CC=C(C)C=CC1C(C)=CCCC1(C)C [compound 9, (3R,6′R)-α-cryptoxanthin] | much greater solubility than lutein
CC1=C(/C=C/C(C)=C/C=C/C(C)=C/C=C/C=C(C)/C=C/C=C(C)/C=C/C2=C(C)C[C@@H](O)CC2(C)C)C(C)(C)CCC1 [compound 13, (3R)-β-cryptoxanthin] | significantly better solubility
CC1=C(/C=C/C(C)=C/C=C/C(C)=C/C=C/C=C(C)/C=C/C=C(C)/C=C/C2=C(C)C[C@@H](O)CC2(C)C)C(C)(C)C[C@H](O)C1 [compound 5, (3R,3′R)-zeaxanthin] | only sparingly soluble
